Experimental data reported in ChEMBL document CHEMBL5303304, “EUbOPEN Chemogenomics Library - IncuCyte” (2023).

Legend:
Type in all cases: toxicity, cell-based
[1] = system: Fibroblast; test: Incucyte cell viability with human fibroblast; conditions: 10 µM, compound concentration 10 uM
[2] = system: HEK-293T; test: Incucyte cell viability with HEK293T; conditions: human, 10 µM, compound concentration 10 uM
[3] = system: U2OS; test: Incucyte cell viability with U2OS; conditions: human, 10 µM, compound concentration 10 uM
Further: unitless GR value; below 1 slowed growth and below 0 cell loss.

SMILES | Growth Rate ([1]; 0 h, replicate number 1) | Growth Rate ([1]; 0 h, replicate number 2) | Growth Rate ([1]; 12 h, replicate number 1) | Growth Rate ([1]; 18 h, replicate number 1) | Growth Rate ([1]; 24 h, replicate number 1) | Growth Rate ([2]; 6 h, replicate number 2) | Growth Rate ([2]; 12 h, replicate number 2) | Growth Rate ([2]; 24 h, replicate number 2) | Growth Rate ([3]; 0 h, replicate number 1) | Growth Rate ([3]; 0 h, replicate number 2) | Growth Rate ([3]; 6 h, replicate number 2) | Growth Rate ([3]; 12 h, replicate number 1) | Growth Rate ([3]; 18 h, replicate number 2) | Growth Rate ([3]; 24 h, replicate number 2) | Growth Rate ([1]; 6 h, replicate number 1) | Growth Rate ([1]; 6 h, replicate number 2) | Growth Rate ([1]; 18 h, replicate number 2) | Growth Rate ([2]; 6 h, replicate number 1) | Growth Rate ([3]; 18 h, replicate number 1) | Growth Rate ([1]; 12 h, replicate number 2) | further results
Cn1nccc1Nc1nccc(-c2cc3c(s2)C(C)(C)N(CCN2CCOCC2)C3=O)n1 [TEMUTERKIB] | -0.63 | -0.1 | -0.93 | 0.27 | 0.12 | 0.33 | 0.76 | 1 | -0.62 | -0.42 | 0.51 | 0.66 | 0.82 | 0.9 |  |  |  |  |  |  | Growth Rate ([2]; 0 h, replicate number 1): 0.39; Growth Rate ([3]; 6 h, replicate number 1): 0.47
Cn1cc(C(=O)O)c2ccc(N3CCC(OCc4c(-c5c(Cl)cccc5Cl)noc4C4CC4)CC3)cc21 [TERN-101] |  | 0.89 | 0.61 | 0.62 | 0.37 |  |  |  | -0.23 |  | -0.83 | 0.74 |  |  | -0.66 | 0.73 | 0.97 | 0.97 | 0.87 |  | Growth Rate ([1]; 24 h, replicate number 2): 0.87; Growth Rate ([3]; 6 h, replicate number 1): 0.86; Growth Rate ([3]; 12 h, replicate number 2): 0.96; Growth Rate ([3]; 24 h, replicate number 1): 0.91
CCO[C@@H](Cc1ccc(OCCc2ccc(OS(C)(=O)=O)cc2)cc1)C(=O)O [TESAGLITAZAR] | 0.92 | 0.24 |  | 0.64 | 0.99 | 0.96 | 0.68 | 0.7 |  | 0.8 | 0.99 |  |  |  | 0.95 | 0.72 | 0.87 | 1 | 0.98 | 0.56 | Growth Rate ([2]; 0 h, replicate number 1): 0.24; Growth Rate ([2]; 0 h, replicate number 2): -0.46; Growth Rate ([2]; 18 h, replicate number 2): 0.85; Growth Rate ([3]; 24 h, replicate number 1): 0.87
O=C(O)Cc1cc(I)c(Oc2ccc(O)c(I)c2)c(I)c1 [TIRATRICOL] | 0.68 |  |  |  | 0.92 |  | 0.66 | 0.69 |  |  |  | -0.73 | 0.96 | 0.9 | 0.72 | 0.26 | 0.7 |  | 0.97 | 0.55 | Growth Rate ([1]; 24 h, replicate number 2): 0.76; Growth Rate ([2]; 0 h, replicate number 1): 0.25; Growth Rate ([2]; 0 h, replicate number 2): -0.35; Growth Rate ([2]; 18 h, replicate number 1): 0.92; Growth Rate ([2]; 18 h, replicate number 2): 0.7; Growth Rate ([2]; 24 h, replicate number 1): 1; Growth Rate ([3]; 6 h, replicate number 1): 0.77
Cc1cc(Nc2cc(N)ncn2)c(=O)n2c1C(=O)NC21CCCCC1 [TOMIVOSERTIB] |  | -1 | -1 |  |  |  |  |  | 0.95 | 0.6 | 0.49 | 0.96 | 0.92 | 0.85 | 0.58 | -0.8 |  | 0.32 | 0.93 |  | Growth Rate ([2]; 0 h, replicate number 2): 0.56; Growth Rate ([3]; 24 h, replicate number 1): 0.88
CC1CCN(c2ccnc(NCc3cn(C)cn3)n2)CC1 [TP-040] |  | -0.66 | 0.71 | 0.71 | 0.65 | 0.85 |  |  | -1 | 0.69 | 0.76 |  | 0.86 | 0.84 | 0.15 | 0.66 |  |  |  | 0.76 | Growth Rate ([3]; 12 h, replicate number 2): 0.8
CN1CCN(c2ccnc(NCCc3ccccc3)n2)CC1 [TP-040n] | -1 |  | 0.8 | 0.74 | 0.58 | 0.09 | 0.3 | 0.4 |  |  | -0.72 | 1 | 0.96 | 0.87 |  |  | 0.63 | 0.2 | 0.94 | 0.9 | Growth Rate ([1]; 24 h, replicate number 2): 0.53; Growth Rate ([2]; 12 h, replicate number 1): 0.39; Growth Rate ([2]; 18 h, replicate number 1): 0.42; Growth Rate ([2]; 18 h, replicate number 2): 0.35; Growth Rate ([2]; 24 h, replicate number 1): 0.41
